# Reference: patent US10519099B2, “Cystobactamides” (priority 2014, dated 2019)
# pIC50: −log10 of the molar value.
# Tests used:
# [1] = tested on: E. coli Δtsx; test: MIC microdilution, E. coli Δtsx; format: cell-based, Escherichia coli; settings: Gram-negative set
# Experimental: (§1) Indicator strains used in susceptibility assays were either part of our strain collection or purchased from the German Collection of Microorgansims and Cell Cultures (DSMZ) or from the American Type Culture Collection (ATCC). E. coli strain WT and corresponding E. coli mutants were kindly provided by Prof. Dr. P. Heisig, Pharmaceutical Biology and Microbiology, University of Hamburg. E. coli strains JW0401-1 (WT) and Δtsx were obtained from the CGSC collection.
# (§2) MIC values were determined in standardized microdilution assays. Overnight cultures were diluted in the appropriate growth medium to achieve an inoculum of 10^4-10^6 cfu/mL. Yeasts were grown in Myc medium (1% phytone peptone, 1% glucose, 50 mM HEPES, pH 7.0), S. pneumonia and Enterococcus spp. in tryptic soy broth (TSB: 1.7% peptone casein, 0.3% peptone soymeal, 0.25% glucose, 0.5% NaCl, 0.25% K2HPO4; pH 7.3); M. smegmatis in Middlebrook 7H9 medium supplemented with 10% Middlebrook ADC enrichment and 2 ml/I glycerol). All other listed bacteria were grown in Müller-Hinton broth (0.2% beef infusion solids, 1.75% casein hydrolysate, 0.15% starch, pH 7.4). […] Growth inhibition was assessed by visual inspection and the MIC was defined as the lowest concentration of compound that inhibited visible growth.
# [2] = tested on: CHO-K1 cell line
# [3] = tested on: Pseudomonas aeruginosa DSM-46316 (ESBL); test: MIC microdilution, P. aeruginosa DSM-46316 (ESBL); format: cell-based; settings: larger panel
# Experimental: as §1
# (§3) MIC values were determined in standardized microdilution assays. Overnight cultures were diluted in the appropriate growth medium to achieve an inoculum of 10^4-10^6 cfu/mL. Yeasts were grown in Myc medium (1% phytone peptone, 1% glucose, 50 mM HEPES, pH 7.0), S. pneumonia and Enterococcus spp. in tryptic soy broth (TSB: 1.7% peptone casein, 0.3% peptone soymeal, 0.25% glucose, 0.5% NaCl, 0.25% K2HPO4; pH 7.3); M. smegmatis in Middlebrook 7H9 medium supplemented with 10% Middlebrook ADC enrichment and 2 ml/I glycerol). All other listed bacteria were grown in Müller-Hinton broth (0.2% beef infusion solids, 1.75% casein hydrolysate, 0.15% starch, pH 7.4). Cystobactamides and reference drugs were added directly to the cultures in sterile 96-well plates as duplicates and serial dilutions were prepared. Microorganisms were grown on a microplate shaker (750 rpm, 30-37° C., 18-48 h), except S. pneumonia, which was grown at non-shaking conditions (37° C., 5% CO2, 18 h). Growth inhibition was assessed by visual inspection and the MIC was defined as the lowest concentration of compound that inhibited visible growth.
# [4] = biological target: T1, E. coli gyrase (Escherichia coli, UniProt P0AES4+P0AES6); test: E. coli gyrase DNA supercoiling assay; format: biochemical; settings: read-out: IC50 Ec gyrase (sc)
# T1 construct: purchased Inspiralis, Norwich, UK
# Experimental: (§4) To test the anti-gyrase activity of cystobactamides, commercial E. coli and P. aeruginosa gyrase supercoiling kits (Inspiralis, Norwich, UK) were used. For standard reactions 0.5 μg relaxed plasmid were mixed with 1 unit gyrase in 1× reaction buffer (see kit manual) and incubated for 30 min at 37° C. The reactions were quenched by the addition of DNA gel loading buffer containing 10% (w/v) SDS. The samples were separated on 1% (w/v) agarose gels and DNA was visualized using EtBr. All natural products stock solutions and dilutions were prepared in 100% DMSO and added to the supercoiling reactions giving a final DMSO concentration of 2% (v/v).
# [5] = tested on: E. coli WT-III [marRΔ74bp]; test: MIC microdilution, E. coli WT-III [marRΔ74bp]; format: cell-based, Escherichia coli
# Experimental: as §1, §3
# [6] = tested on: Enterobacter cloacae DSM-30054; test: MIC microdilution, Enterobacter cloacae DSM-30054; format: cell-based; settings: larger panel
# Experimental: Dr. P. Heisig, Pharmaceutical Biology and Microbiology, University of Hamburg.
# Overnight cultures were diluted in the appropriate growth medium to achieve an inoculum of 10^4-10^6 cfu/mL. […] Cystobactamides and reference drugs were added directly to the cultures in sterile 96-well plates as duplicates and serial dilutions were prepared. Microorganisms were grown on a microplate shaker (750 rpm, 30-37° C., 18-48 h), except S. pneumonia, which was grown at non-shaking conditions (37° C., 5% CO2, 18 h). Growth inhibition was assessed by visual inspection and the MIC was defined as the lowest concentration of compound that inhibited visible growth.
# [7] = tested on: Escherichia coli (TolC-deficient); test: MIC microdilution, E. coli (TolC-deficient); format: cell-based; settings: larger panel
# Experimental: as §1, §2
# [8] = tested on: Proteus vulgaris DSM-2140; test: MIC microdilution, P. vulgaris DSM-2140; format: cell-based
# Experimental: as §1, §3
# [9] = tested on: P. aeruginosa DSM-24600 (ESBL); test: MIC microdilution, P. aeruginosa DSM-24600 (ESBL); format: cell-based, Pseudomonas aeruginosa
# Experimental: as §1, §3
# [10] = tested on: E. coli WT; test: MIC microdilution, E. coli WT; format: cell-based, Escherichia coli
# Experimental: as §1, §3
# [11] = tested on: Serratia marcescens DSM-30121; test: MIC microdilution, Serratia marcescens DSM-30121; format: cell-based; settings: larger panel
# Experimental: as §1, §3
# [12] = biological target: T2, P. aeruginosa gyrase (Pseudomonas aeruginosa, UniProt P48372+Q9I7C2); test: P. aeruginosa gyrase DNA supercoiling assay; format: biochemical; settings: read-out: IC50 Pa gyrase (sc)
# T2 construct: purchased Inspiralis, Norwich, UK
# Experimental: as §4
# [13] = tested on: Pseudomonas aeruginosa DSM-24599; test: MIC microdilution, P. aeruginosa DSM-24599; format: cell-based; settings: larger panel
# Experimental: as §1, §3
# [14] = tested on: Staphylococcus epidermidis DSM-28765; test: MIC microdilution, Staphylococcus epidermidis DSM-28765; format: cell-based; settings: larger panel
# Experimental: as §1, §3
# [15] = tested on: CHO-K1 (Chinese hamster ovary cell line); test: Cytotoxicity (MTT), CHO-K1 cell line; format: cell-based; settings: 5 d incubation
# Experimental: CHO-K1 cells were obtained from the DSMZ and were cultured under conditions recommended by the depositor. Cells were seeded at 6×10^3 cells/well of 96-well plates in 180 μl complete medium and treated with compounds in serial dilution after 2 h of equilibration. Each sample was tested in duplicate as well as the internal DMSO control. After 5 d incubation, 20 μl of 5 mg/ml MTT (thiazolyl blue tetrazolium bromide) in PBS was added per well and it was further incubated for 2 h at 37° C. The medium was then discarded and cells were washed with 100 μl PBS before adding 100 μl 2-propanol/10 N HCl (250:1) in order to dissolve formazan granules. The absorbance at 570 nm was measured using a microplate reader (Tecan Infinite M200Pro), and cell viability was expressed as percentage relative to the respective […] control.
# [16] = tested on: Citrobacter freundii DSM-30039; test: MIC microdilution, C. freundii DSM-30039; format: cell-based
# Experimental: as §1, §3
# [17] = tested on: E. coli JW0401-1 (WT); test: MIC microdilution, E. coli JW0401-1 (WT); format: cell-based, Escherichia coli; settings: Gram-negative set
# Experimental: as §1, §2
# [18] = tested on: Pseudomonas aeruginosa ATCC27853; test: MIC microdilution, P. aeruginosa ATCC27853; format: cell-based; settings: larger panel
# Experimental: as §1, §3
# [19] = tested on: Acinetobacter baumannii DSM-30008; test: MIC microdilution, A. baumannii DSM-30008; format: cell-based
# Experimental: as §1, §3
# [20] = tested on: Enterococcus faecium DSM-20477; test: MIC microdilution, Enterococcus faecium DSM-20477; format: cell-based; settings: larger panel
# Experimental: as §1, §3
# [21] = tested on: Pseudomonas aeruginosa PA14; test: MIC microdilution, P. aeruginosa PA14; format: cell-based; settings: larger panel
# Experimental: as §1, §3
# [22] = tested on: E. coli DSM-1116; test: MIC microdilution, E. coli DSM-1116; format: cell-based, Escherichia coli
# Experimental: as §1, §3
# [23] = tested on: E. coli WT-3 [gyrA(S83L, D87G)]; test: MIC microdilution, E. coli WT-3 [gyrA(S83L, D87G)]; format: cell-based, Escherichia coli
# Experimental: as §1, §3
# [24] = tested on: E. coli DSM-26863 (tolC3); test: MIC microdilution, E. coli DSM-26863 (tolC3); format: cell-based, Escherichia coli
# Experimental: as §1, §3
smiles,measurement,setting,value
CO[C@@H](C(N)=O)[C@H](NC(=O)c1ccc(NC(=O)c2ccc([N+](=O)[O-])cc2)cc1)C(=O)Nc1ccc(C(=O)Nc2ccc(C(=O)Nc3ccc(C(=O)O)cc3)c(O)c2OC(C)C)cc1 [Cys 861-2],MIC E. coli Δtsx,[1],0.25 µg/mL
same,"genotoxic effect, micronucleus formation",[2],No detectable genotoxic effect
same,MIC Pseudomonas aeruginosa DSM-46316 (ESBL),[3],2 µg/mL
same,pIC50,[4],6.55
same,MIC E. coli WT-III [marRΔ74bp],[5]; Gram-negative set,0.5 µg/mL
same,MIC Escherichia coli WTIII (marRΔ74bp),[5]; larger panel,0.5 µg/mL
same,MIC Enterobacter cloacae DSM-30054,[6],64 µg/mL
same,MIC Escherichia coli (TolC-deficient),[7],0.06 µg/mL
same,MIC P. vulgaris DSM-2140,[8]; Gram-negative set,0.25 µg/mL
same,MIC Proteus vulgaris DSM-2140,[8]; larger panel,0.25 µg/mL
same,MIC P. aeruginosa DSM-24600 (ESBL),[9]; Gram-negative set,1 µg/mL
same,MIC Pseudomonas aeruginosa DSM-24600 (ESBL),[9]; larger panel,1 µg/mL
same,MIC E. coli WT,[10]; Gram-negative set,0.13 µg/mL
same,MIC Escherichia coli WT,[10]; larger panel,0.125 µg/mL
same,MIC Serratia marcescens DSM-30121,[11],64 µg/mL
same,pIC50,[12],6.74
same,MIC Pseudomonas aeruginosa DSM-24599,[13],2 µg/mL
same,MIC Staphylococcus epidermidis DSM-28765,[14],0.5 µg/mL
same,pIC50,[15],< 4.00
same,MIC C. freundii DSM-30039,[16]; Gram-negative set,0.06 µg/mL
same,MIC Citrobacter freundii DSM-30039,[16]; larger panel,0.06 µg/mL
same,MIC E. coli JW0401-1 (WT),[17],0.25 µg/mL
same,MIC Pseudomonas aeruginosa ATCC27853,[18],4 µg/mL
same,MIC A. baumannii DSM-30008,[19]; Gram-negative set,0.5 µg/mL
same,MIC Acinetobacter baumannii DSM-30008,[19]; larger panel,0.5 µg/mL
same,MIC Enterococcus faecium DSM-20477,[20],0.5 µg/mL
same,MIC Pseudomonas aeruginosa PA14,[21],2 µg/mL
same,MIC E. coli DSM-1116,[22]; Gram-negative set,0.13 µg/mL
same,MIC Escherichia coli DSM-1116,[22]; larger panel,0.4 µg/mL
same,"MIC E. coli WT-3 [gyrA(S83L, D87G)]",[23]; Gram-negative set,0.5 µg/mL
same,"MIC Escherichia coli WT-3 [gyrA(S83L, D87G)]",[23]; larger panel,0.5 µg/mL
same,MIC E. coli DSM-26863 (tolC3),[24]; Gram-negative set,0.06 µg/mL
same,MIC Escherichia coli DSM-26863 (tolC3),[24]; larger panel,0.4 µg/mL
